Series [1] deals with liver cancer cell line HEPG2. The experiment in a line: Anti-tumor activity in vitro, MTT method. As to conditions: Homo sapiens, HepG2, 48 h, read-out: HEPG2 (IC50/μM). (In general: Formazan colour is commonly taken as a measure of viable cells.)
Protocol: (§1) MTT method: the dehydrogenase associated with NADP in the mitochondria of living cell is capable of reducing exogenous MTT into insoluble bluish violet crystal (Formazan), which is precipitated in the cell. […] DMSO or Triple liquid (10% SDS-5% isobutanol-0.01 mol/L HCl) is used to dissolve the crystal in the cell. The OD determined at 570 nm by a microplate reader can reflect the amount of the living cell indirectly.
(§2) The crystal is dissolved with DMSO and the detection is performed on a microplate reader.
The next series concerns lung cancer cell H1299. The experiment in a line: Anti-tumor activity in vitro, MTT method. The series is classed as cell-based. Conditions: Homo sapiens, NCI-H1299, 48 h, read-out: H1299 (IC50/μM).
The subject of series [2] is stomach cancer cell line BSG823. The experiment in a line: Anti-tumor activity in vitro, MTT method. Conditions: 48 h, read-out: BSG823 (IC50/μM).
Protocol: as §1, §2
In series [3] the test system is colon cancer cell line HCT116. Briefly: Anti-tumor activity in vitro, MTT method. The series is classed as cell-based. Conditions: Homo sapiens, HCT-116, 48 h.
In a further series the test system is leukemia cell line K562. The experiment in a line: Anti-tumor activity in vitro, MTT method. As to conditions: Homo sapiens, K562, 48 h, read-out: K562 (IC50/μM).
In series [4] the test system is lung cancer cell line A549. Briefly: Anti-tumor activity in vitro, MTT method. Conditions: Homo sapiens, A549, 48 h, read-out: A549 (IC50/μM).
Protocol: as §1, §2
For series [5], the system named is umbilical cord vein endothelium cell line HUVEC. Briefly: Anti-tumor activity in vitro, MTT method. Conditions: Homo sapiens, 48 h, read-out: HUVEC (IC50/μM).
Protocol: as §1, §2
A further series concerns S180 grafting tumor. Briefly: Inhibition to S180 grafting tumor in animal. The series is classed as in vivo, ICR mouse. Conditions: 15 mg/kg intravenously once a day, 7 administrations. The procedure: ICR mouse was inoculated with solid tumor according to tumor grafting process (tumor piece was weighed under sterile condition, homogenized with glass tissue homogenizer, placed within a sterile container, to which was added physiological saline to prepare 1:3 cell suspension. The container was placed on ice and aspirated and the cells were mixed homogeneously before each aspiration. Each mouse was inoculated subcutaneously 0.2 mL at right fore axilla). […] The mice were administered intravenously, once a day and 7 administrations in total. The administration volume was 0.4 ml/20 g. The mice bearing tumor were sacrificed 8 days after inoculation (d8). The tumor tissue was separated and weighed. The data was analyzed with statistics method (t-test).
Dose setting: 5 groups in total.

Series [6] has as its system stomach cancer cell line MGC803. Briefly: Anti-tumor activity in vitro, MTT method. As to conditions: Homo sapiens, MGC-803, 48 h, read-out: MGC803 (IC50/μM).
Protocol: as §1, §2
The test system of series [7] is breast cancer cell line MCF-7. Briefly: Anti-tumor activity in vitro, MTT method. As to conditions: Homo sapiens, MCF7, 48 h, read-out: MCF7 (IC50/μM).
Protocol: as §1, §2
Series [8] has as its system breast cancer cell line MDA231. The experiment in a line: Anti-tumor activity in vitro, MTT method. As to conditions: Homo sapiens, MDA-MB-231, 48 h, read-out: MDA231 (IC50/μM).
Protocol: as §1, §2
The test system of series [9] is resistant breast cancer cell line MCF-7. The experiment in a line: Anti-tumor activity in vitro, MTT method. Conditions: Homo sapiens, MCF7, 48 h, read-out: Resistant MCF7 (IC50/μM).
Protocol: as §1, §2
Another series has as its system leukemia cell line NB4. Briefly: Anti-tumor activity in vitro, MTT method. As to conditions: 48 h, read-out: NB4 (IC50/μM).
Series [10] has as its system liver cancer cell line 7721. The experiment in a line: Anti-tumor activity in vitro, MTT method. The series is classed as cell-based. Conditions: 48 h, read-out: 7721 (IC50/μM).
Another series has as its target T1, Aurora A (Homo sapiens, UniProt O14965).
T1 construct: purchased
T1 sequence (O14965 1-403): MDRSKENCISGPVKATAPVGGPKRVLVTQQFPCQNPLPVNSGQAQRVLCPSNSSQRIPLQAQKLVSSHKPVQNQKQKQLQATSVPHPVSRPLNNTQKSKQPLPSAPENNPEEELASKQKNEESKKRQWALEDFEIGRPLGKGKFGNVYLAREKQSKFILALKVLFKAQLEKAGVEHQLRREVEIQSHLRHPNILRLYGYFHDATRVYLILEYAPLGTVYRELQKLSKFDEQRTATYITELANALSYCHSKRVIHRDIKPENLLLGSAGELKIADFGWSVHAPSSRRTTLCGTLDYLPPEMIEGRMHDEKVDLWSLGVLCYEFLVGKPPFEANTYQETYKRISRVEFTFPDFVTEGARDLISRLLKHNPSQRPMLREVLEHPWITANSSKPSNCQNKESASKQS
Briefly: Inhibitory activity to Aurora A (FRET). The series is classed as biochemical. Conditions: read-out: Aurora A inhibition % (1 × 10^−6 mol/L). The method in brief:
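FRET kinase assay of Aurora A with peptide substrate in HEPES pH 7.5, BRIJ-35, MgCl2, EDTA; 1 h reaction, then 1 h development before stop. Ex 400 nm, emission 445 nm (coumarin) and 520 nm (fluorescein); 0% and 100% phosphorylation controls set inhibition scale.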

The structures appear in SMILES notation. Where two headings read alike, the source gives them in different places.

Protocol for leukemia cell line K562: as §1, §2
Protocol for leukemia cell line NB4: as §1, §2

For the molecule `O=C(NC1CCNCC1)c1n[nH]cc1NC(=O)c1c(Cl)cccc1Cl` [AT-7519, reference compound], the IC50 came to 53.6 µM in [1]; 9.32 µM in the series with lung cancer cell H1299; 16.7 µM in [2]; 2.63 µM in series [3] (read-out: HCT116 (IC50/μM)); 21.2 µM in series [3] (read-out: HCT-116 (IC50/μM)); 3.24 µM with leukemia cell line K562. Besides, the IC50 in series [4] amounted to 53.5 µM; in series [5], 5.67 µM; in series [6] it was 1.93 µM; in series [7] it was 2.04 µM; in [8] it was 2.58 µM; in series [9], 22.1 µM. In addition, the IC50 was 0.62 µM with leukemia cell line NB4 and greater than 200 µM in series [10]. Also, the “Body weight After administration” value with S180 grafting tumor was found to be 23.83 ± 3.39 g. This molecule also registered a Tumor inhibition in the series with S180 grafting tumor (d8) of 32.45%. The molecule also returned a Tumor weight in the series with S180 grafting tumor (d8) of 0.80 ± 0.27 g. Besides, at Aurora A, the inhibition at 1 µM is 38%.
